# Assay results as given in paper PMC6327040, “A novel scaffold for EGFR inhibition: Introducing N-(3-(3-phenylureido)quinoxalin-6-yl) acrylamide derivatives” (Scientific Reports, 2019).
# Experiments:
# EGFRwt = EGFRwt (Homo sapiens, UniProt P00533); assay: HTRF KinEASE-TK biochemical assay (TR-FRET), EGFRwt
# Method: (§1) An artificial substrate peptide (TK-substrate from Cisbio) was phosphorylated by EGFR. After completion of the reaction (reaction times: 25 min for wild-type, 15 min for L858R, 20 min for T790M/L858R), the reaction was stopped by addition of a buffer containing EDTA as well as, an anti-phosphotyrosine antibody labeled with europium cryptate and streptavidin labeled with the fluorophore XL665. FRET between europium cryptate and XL665 was measured after an additional hour of incubation to quantify the phosphorylation of the substrate peptide. […] Kinase and inhibitor were preincubated for 30 min (EGFR-wt) and 1 h (EGFR-L858R and EGFR-L858R/T790M) before the reaction was started by addition of ATP and substrate peptide. An EnVision multimode plate reader (Perkin Elmer) was used to measure the fluorescence of the samples at 620 nm (Eu-labeled antibody) and 665 nm (XL665 labeled streptavidin) 50 μs after excitation at 320 nm. The quotient of both intensities for reactions made with eight different inhibitor concentrations was then analyzed using the Quattro Software Suite for IC50-determination. Each reaction was performed in duplicate, and at least three independent determinations of each IC50 were made.
# EGFRL858R = EGFRL858R (Homo sapiens, UniProt P00533, L858R); assay: HTRF KinEASE-TK biochemical assay (TR-FRET), EGFR-L858R
# Method: as §1
# EGFRL858R/T790M = EGFRL858R/T790M (Homo sapiens, UniProt P00533, L858R/T790M); assay: HTRF KinEASE-TK biochemical assay (TR-FRET), EGFR-L858R/T790M
# Method: as §1
# [1] = system: patient-derived tumor cell panel; assay: Patient-derived tumor cell panel screening (Oncotest); assay type: cell-based; conditions: single screening concentration of 10 μM
# Method: Based on this premise, the inhibitory activity of compounds 7a-m towards a patient-derived tumor cell panel[49] was evaluated, using a single screening concentration of 10 μM. […] In fact, it is worth mentioning that, although the data observed in a cellular assay have no direct correlation to EGFR enzymatic tests, this phenomenon is not unusual and is related to the nature of the assays itself. In enzymatic assays there is no influence of membrane permeability issues, while in cell viability assays compounds must penetrate the cell membrane and resist the cellular environment for long enough for the ligand-receptor interaction to occur and to trigger the biological activity.
# Sequence of EGFRL858R (P00533 25-1210 L858R): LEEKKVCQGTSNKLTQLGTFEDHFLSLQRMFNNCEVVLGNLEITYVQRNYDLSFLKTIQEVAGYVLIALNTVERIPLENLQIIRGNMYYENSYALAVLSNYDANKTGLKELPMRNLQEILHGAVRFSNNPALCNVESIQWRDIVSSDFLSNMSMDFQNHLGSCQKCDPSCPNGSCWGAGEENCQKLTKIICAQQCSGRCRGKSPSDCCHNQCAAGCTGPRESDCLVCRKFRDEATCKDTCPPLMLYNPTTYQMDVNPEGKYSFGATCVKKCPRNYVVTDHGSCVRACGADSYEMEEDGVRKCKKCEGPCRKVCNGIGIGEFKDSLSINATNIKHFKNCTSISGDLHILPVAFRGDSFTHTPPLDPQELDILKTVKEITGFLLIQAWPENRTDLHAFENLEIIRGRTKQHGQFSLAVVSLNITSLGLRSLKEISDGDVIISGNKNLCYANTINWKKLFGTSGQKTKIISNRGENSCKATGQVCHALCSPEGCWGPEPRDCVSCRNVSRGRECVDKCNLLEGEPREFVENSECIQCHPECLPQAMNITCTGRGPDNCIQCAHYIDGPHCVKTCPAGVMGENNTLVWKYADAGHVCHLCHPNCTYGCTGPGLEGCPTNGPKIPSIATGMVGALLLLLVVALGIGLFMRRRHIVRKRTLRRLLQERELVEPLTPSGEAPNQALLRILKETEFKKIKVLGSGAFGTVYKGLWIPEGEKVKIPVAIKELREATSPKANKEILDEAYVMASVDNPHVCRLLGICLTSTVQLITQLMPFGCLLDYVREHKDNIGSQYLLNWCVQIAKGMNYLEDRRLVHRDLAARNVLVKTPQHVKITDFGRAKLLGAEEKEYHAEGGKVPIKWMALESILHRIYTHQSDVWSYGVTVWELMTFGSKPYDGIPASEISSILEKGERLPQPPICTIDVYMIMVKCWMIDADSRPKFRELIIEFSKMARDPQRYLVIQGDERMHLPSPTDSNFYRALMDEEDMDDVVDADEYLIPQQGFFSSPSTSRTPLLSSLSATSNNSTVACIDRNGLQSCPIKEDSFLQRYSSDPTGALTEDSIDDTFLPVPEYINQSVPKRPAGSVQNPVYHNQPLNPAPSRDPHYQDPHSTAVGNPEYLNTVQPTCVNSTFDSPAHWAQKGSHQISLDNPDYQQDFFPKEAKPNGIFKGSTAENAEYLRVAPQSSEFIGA
# Sequence of EGFRwt (P00533 25-1210): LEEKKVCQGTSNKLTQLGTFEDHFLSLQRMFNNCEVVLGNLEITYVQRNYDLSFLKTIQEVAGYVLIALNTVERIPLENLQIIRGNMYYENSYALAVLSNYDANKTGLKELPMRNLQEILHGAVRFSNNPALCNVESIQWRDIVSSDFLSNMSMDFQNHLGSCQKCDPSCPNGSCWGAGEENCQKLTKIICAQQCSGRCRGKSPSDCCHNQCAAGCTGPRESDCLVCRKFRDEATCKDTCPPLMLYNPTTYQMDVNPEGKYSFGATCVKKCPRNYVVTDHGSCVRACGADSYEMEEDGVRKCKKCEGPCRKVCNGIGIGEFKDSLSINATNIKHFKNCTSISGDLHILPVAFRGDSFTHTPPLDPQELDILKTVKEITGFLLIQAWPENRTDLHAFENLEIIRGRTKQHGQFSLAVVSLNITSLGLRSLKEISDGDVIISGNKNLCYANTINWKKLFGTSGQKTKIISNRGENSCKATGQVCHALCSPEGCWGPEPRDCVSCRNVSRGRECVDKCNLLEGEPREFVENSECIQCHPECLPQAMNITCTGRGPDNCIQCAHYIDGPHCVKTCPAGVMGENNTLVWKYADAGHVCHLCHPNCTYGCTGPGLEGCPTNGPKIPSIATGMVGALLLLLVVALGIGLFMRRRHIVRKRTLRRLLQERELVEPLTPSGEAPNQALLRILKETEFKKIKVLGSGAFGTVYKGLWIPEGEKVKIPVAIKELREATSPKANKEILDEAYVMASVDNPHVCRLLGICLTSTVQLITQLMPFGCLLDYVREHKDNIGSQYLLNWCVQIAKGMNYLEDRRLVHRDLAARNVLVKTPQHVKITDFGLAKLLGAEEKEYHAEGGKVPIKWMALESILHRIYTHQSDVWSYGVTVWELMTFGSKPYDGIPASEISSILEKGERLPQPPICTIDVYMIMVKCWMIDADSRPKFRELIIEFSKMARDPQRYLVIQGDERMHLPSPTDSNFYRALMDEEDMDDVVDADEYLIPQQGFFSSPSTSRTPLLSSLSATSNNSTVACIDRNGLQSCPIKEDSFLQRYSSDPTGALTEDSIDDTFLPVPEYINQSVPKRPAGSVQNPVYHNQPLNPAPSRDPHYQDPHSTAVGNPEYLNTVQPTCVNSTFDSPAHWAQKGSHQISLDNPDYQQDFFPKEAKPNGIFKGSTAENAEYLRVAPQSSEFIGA
# Sequence of EGFRL858R/T790M (P00533 25-1210 T790M/L858R): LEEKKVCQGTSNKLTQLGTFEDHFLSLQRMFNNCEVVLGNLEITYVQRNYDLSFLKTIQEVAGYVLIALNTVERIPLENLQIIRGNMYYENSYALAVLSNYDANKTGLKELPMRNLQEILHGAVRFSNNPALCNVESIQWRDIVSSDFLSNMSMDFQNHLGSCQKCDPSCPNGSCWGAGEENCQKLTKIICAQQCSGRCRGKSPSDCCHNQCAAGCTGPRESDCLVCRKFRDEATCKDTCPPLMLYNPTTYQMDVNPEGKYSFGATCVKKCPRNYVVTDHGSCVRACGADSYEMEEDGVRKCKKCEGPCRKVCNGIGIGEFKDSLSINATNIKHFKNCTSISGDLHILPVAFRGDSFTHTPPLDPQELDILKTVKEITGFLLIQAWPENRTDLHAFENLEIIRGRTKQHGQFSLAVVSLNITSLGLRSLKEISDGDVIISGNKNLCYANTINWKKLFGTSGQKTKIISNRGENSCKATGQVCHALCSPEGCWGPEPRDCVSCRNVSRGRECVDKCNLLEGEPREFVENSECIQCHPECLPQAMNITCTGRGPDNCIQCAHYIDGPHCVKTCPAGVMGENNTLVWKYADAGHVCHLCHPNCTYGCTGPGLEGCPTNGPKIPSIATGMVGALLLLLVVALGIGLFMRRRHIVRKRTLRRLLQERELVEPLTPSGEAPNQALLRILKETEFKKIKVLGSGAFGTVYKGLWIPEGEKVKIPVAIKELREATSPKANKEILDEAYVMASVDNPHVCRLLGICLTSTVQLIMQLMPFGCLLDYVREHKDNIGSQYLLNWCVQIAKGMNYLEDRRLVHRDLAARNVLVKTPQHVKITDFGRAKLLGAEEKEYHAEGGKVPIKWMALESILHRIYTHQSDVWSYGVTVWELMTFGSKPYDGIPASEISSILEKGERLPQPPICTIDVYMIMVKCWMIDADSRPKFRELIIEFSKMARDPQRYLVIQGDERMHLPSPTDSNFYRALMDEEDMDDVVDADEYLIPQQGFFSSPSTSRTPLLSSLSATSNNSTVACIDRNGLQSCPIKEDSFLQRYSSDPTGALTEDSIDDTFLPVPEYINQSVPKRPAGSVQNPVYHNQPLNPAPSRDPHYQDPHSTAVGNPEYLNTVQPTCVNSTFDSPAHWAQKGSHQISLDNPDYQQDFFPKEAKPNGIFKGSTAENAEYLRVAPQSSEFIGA
Compound,melting point,IC50 (EGFRwt),IC50 (EGFRL858R),IC50 (EGFRL858R/T790M),tumor cell lines' growth inhibition / cytotoxic activity (in words) [1]
"CN(C)C/C=C/C(=O)Nc1ccc2ncc(NC(=O)Nc3ccc(Cl)c(C(F)(F)F)c3)nc2c1 [Compound 7e, (E)-N-(3-(3-(4-chloro-3-(trifluoromethyl)phenyl)ureido)quinoxalin-6-yl)-4-(dimethylamino)but-2-enamide]",217 to 220 °C,> 10 µM,> 10 µM,6.14 ± 3.47 µM,
"C/C=C/C(=O)Nc1ccc2ncc(NC(=O)Nc3ccccc3)nc2c1 [Compound 7i, (E)-N-(3-(3-phenylureido)quinoxalin-6-yl)but-2-enamide]",273 to 276 °C,> 10 µM,5.58 ± 4.16 µM,> 10 µM,
"C/C=C/C(=O)Nc1ccc2ncc(NC(=O)Nc3ccc(Cl)c(C(F)(F)F)c3)nc2c1 [Compound 7b, (E)-N-(3-(3-(4-chloro-3-(trifluoromethyl)phenyl)ureido)quinoxalin-6-yl)but-2-enamide]",277 to 280 °C,> 10 µM,> 10 µM,> 10 µM,
"C=CC(=O)Nc1ccc2ncc(NC(=O)Nc3ccc(F)c(Cl)c3)nc2c1 [Compound 7m, N-(3-(3-(3-chloro-4-fluorophenyl)ureido)quinoxalin-6-yl) acrylamide]",259 to 262 °C,> 10 µM,> 10 µM,> 10 µM,

# Now from value to compound, other results behind:
melting point,IC50 (EGFRwt),IC50 (EGFRL858R),IC50 (EGFRL858R/T790M),Compound,tumor cell lines' growth inhibition / cytotoxic activity (in words) [1]
272 to 274 °C,> 10 µM,> 10 µM,> 10 µM,"C=CC(=O)Nc1ccc2ncc(NC(=O)Nc3ccc(Cl)c(C(F)(F)F)c3)nc2c1 [Compound 7a, N-(3-(3-(4-chloro-3-(trifluoromethyl)phenyl)ureido)quinoxalin-6-yl) acrylamide]",
,0.101 ± 0.012 µM,0.032 ± 0.014 µM,0.132 ± 0.049 µM,"CN(C)C/C=C/C(=O)Nc1ccc2ncc(NC(=O)Nc3ccccc3)nc2c1 [Compound 7l, (E)-4-(dimethylamino)-N-(3-(3-phenylureido)quinoxalin-6-yl)but-2-enamide]",did not inhibit the Oncotest® tumor cell lines’ growth in a significant manner
